This is an account of results in the OligoGym collection.

Several values for one entry are separate records, joined by “and”; a condition that tells them apart may be missing. Identical values can stand only once. After the bases stand the sugars from the 5' end (letter, count) and the backbone: PS all phosphorothioate, else s phosphorothioate and o phosphodiester by linkage. Methylation of C is not given here. e = 2'-O-(2-methoxyethyl) (MOE); k = constrained ethyl (cEt); d = 2'-deoxy (DNA)

In this data set the target is IRF4. The conditions noted are these: ASO.

For the sequence “AGCTTGATAAAGGCTG (sugars kkdddddddddekeke, PS)”, the target mRNA inhibition (MM.1R, 1 µM) amounted to 18%. Take TGCTATTAAACTGATT (sugars k3 d10 k3, PS): the target mRNA inhibition (MM.1R, 1 µM) was -3%. In the case of “AGTGTCTAAAGTCCCA (sugars kddddddddddkekek, PS)”, where the note is “MM.1R, 1 µM”, the target mRNA inhibition is -1% and 3%. Still for that read-out and setting: the result for “AGCATTTTATCATCCG (sugars kkkdddddddddkeke, PS)” reads 42%. For the sequence ATGCAAGCCCGTTAAT (sugars k3 d10 k3, PS), the target mRNA inhibition (SK-MEL-28, 4 µM) was found to be 4%. Regarding CCAGAGCACACAGACG (sugars k3 d10 k3, PS), the target mRNA inhibition (SK-MEL-28, 4 µM) came out at 36%. Turning to GCAAAGCCACCCTTCC (sugars k3 d10 k3, PS), where the note is “SK-MEL-28, 4 µM”, the target mRNA inhibition was 60%.

For GGCACTACTTCCAAAA (sugars k3 d10 k3, PS), the target mRNA inhibition (SK-MEL-28, 4 µM) was found to be 31%.

In the case of TAAAGACCTTAACCAA (sugars k3 d10 k3, PS), the target mRNA inhibition (SK-MEL-28, 4 µM) is 30%. Regarding GCCGCCCTCCAGGTTC (sugars k3 d10 k3, PS), for the setting “SK-MEL-28, 4 µM”, the target mRNA inhibition was found to be 49%. On to TAACTGTATGGAACCC (sugars k3 d10 k3, PS), for which the target mRNA inhibition (MM.1R, 1 µM) stood at 28%.

As to GGCTCTGCAAACGACA (sugars k3 d10 k3, PS), the target mRNA inhibition (MM.1R, 1 µM) was determined as 0%. “GTTGGCTGGTCTTTGT (sugars kkddddddddddkeke, PS)”: under “MM.1R, 1 µM”, the target mRNA inhibition was found to be 25%. On the same count and under the same terms, the result for “GTGTGCTTGCCAAGCC (sugars kkdddddddddkdkdk, PS)” reads 59%. Turning to GATGAGAATTCCAAAC (sugars k3 d10 k3, PS), the target mRNA inhibition (MM.1R, 0.0625 µM) was -1%; the target mRNA inhibition (MM.1R, 0.074 µM) came to 0%; the target mRNA inhibition (MM.1R, 0.222 µM) was determined as 2%; the target mRNA inhibition (MM.1R, 0.25 µM) was found to be 2%; the target mRNA inhibition (MM.1R, 0.666 µM) turned out to be 0%; the target mRNA inhibition (MM.1R, 1 µM) amounted to 14%. Moreover, the target mRNA inhibition worked out at 32% (MM.1R, 2 µM); 36% (MM.1R, 4 µM); 84% (SK-MEL-28, 4 µM). For AGGTTCCTGTCACCTG (sugars k3 d10 k3, PS), the target mRNA inhibition (MM.1R, 1 µM) was -7%. In the case of “CTTGATAAAGGCTGAA (sugars k2 d9 e3 k2, PS)”, under “MM.1R, 1 µM”, the target mRNA inhibition came out at 10%. With AGCCATCGGCAGCTGA (sugars k3 d10 k3, PS), for the setting “SK-MEL-28, 4 µM”, the target mRNA inhibition was determined as 14%.

As for “GATGTGATAGCTGAGC (sugars k2 d9 e3 k2, PS)”, under “MM.1R, 1 µM”, the target mRNA inhibition came out at 52%. In the case of GCAAGTGTCTTCCACA (sugars k3 d10 k3, PS), the target mRNA inhibition (SK-MEL-28, 4 µM) was 77%. For the sequence “TCAGTTTGTGAAGCAT (sugars e1 k2 d9 k2 e2, PS)”, the target mRNA inhibition (MM.1R, 1 µM) came to 47%.

For the sequence CACTAAGTGGGCTCTG (sugars k3 d10 k3, PS), the target mRNA inhibition (SK-MEL-28, 4 µM) was 41%. As for “AAGTTCATGTAAAGTC (sugars kkdddddddddkekek, PS)”, for the setting “MM.1R, 1 µM”, the target mRNA inhibition is 34% and 27%.

Turning to CCATTACTTAGACATT (sugars k3 d10 k3, PS), the target mRNA inhibition (SK-MEL-28, 4 µM) was 64%. For “CTATAGTGTTCCAGGA (sugars kkkddddddddkekek, PS)”, the target mRNA inhibition (MM.1R, 1 µM) is 23%. On to “GGGATTATATACTGGT (sugars kkdddddddddekeke, PS)”, for which, for the setting “MM.1R, 1 µM”, the target mRNA inhibition is 34%. As to CTGTAGGATTTTACAT (sugars k3 d10 k3, PS), the target mRNA inhibition (SK-MEL-28, 4 µM) was determined as 24%.

On to TTGGTACGGGATTTCC (sugars k3 d10 k3, PS), for which, under “MM.1R, 1 µM”, the target mRNA inhibition was found to be 34%. For the sequence CCTCAACCGCTGAACT (sugars k3 d10 k3, PS), where the note is “SK-MEL-28, 4 µM”, the target mRNA inhibition was found to be 30%. Turning to ACGTGTGCTTGCCAAG (sugars k3 d10 k3, PS), the target mRNA inhibition (MM.1R, 1 µM) is 54% and 55%.

GCTGAATGCTCTCCAT (sugars k3 d10 k3, PS): the target mRNA inhibition (SK-MEL-28, 4 µM) was found to be 52%. On the same count and under the same terms, the value for CCGTAGTCAGCTCCAT (sugars k3 d10 k3, PS) was 73%; that for ATTCTCCTCAACCGCT (sugars k3 d10 k3, PS) was 35%.

In the case of TGGCTAGCAGAGGTTC (sugars k3 d10 k3, PS), the target mRNA inhibition (SK-MEL-28, 0.185 µM) was 1%; the target mRNA inhibition (SK-MEL-28, 4 µM) was determined as 56%; the target mRNA inhibition (SK-MEL-28, 5 µM) came to 62%; the target mRNA inhibition (SK-MEL-28, 15 µM) turned out to be 85%. With TCTTGTGGACACTTTT (sugars k3 d10 k3, PS), the target mRNA inhibition (SK-MEL-28, 4 µM) worked out at 65%. Consider GACTTAGTCAGAATCT (sugars k3 d10 k3, PS), for which the target mRNA inhibition (MM.1R, 1 µM) came to 10%. With GGCACAGACATACCTA (sugars k3 d10 k3, PS), the target mRNA inhibition (SK-MEL-28, 4 µM) is 48%.

Regarding GAGATAGGAAGCACTG (sugars k3 d10 k3, PS), the target mRNA inhibition (SK-MEL-28, 4 µM) turned out to be 48%. On the same count and under the same terms, the result for TAAAGAATGAGGGTCA (sugars k3 d10 k3, PS) reads 45%. As for “AGTATGAGAAACGGCC (sugars kkdddddddddkdkdk, PS)”, the target mRNA inhibition (MM.1R, 1 µM) came to 6%.

On to GTCTACTGCTGTACTT (sugars k3 d10 k3, PS), for which the target mRNA inhibition (SK-MEL-28, 4 µM) came out at 52%.

Turning to CGCCGAAGTCAACAGG (sugars k3 d10 k3, PS), the target mRNA inhibition (SK-MEL-28, 4 µM) came to 44%. As to TCTGAGTAGACTTCTT (sugars k3 d10 k3, PS), the target mRNA inhibition (MM.1R, 1 µM) came out at 14%. Same read-out and setting: the result for CGTAACAACGACACAC (sugars k3 d10 k3, PS) reads -35%; that for TAAGATCCCACGAAGG (sugars k3 d10 k3, PS), 9%.

Regarding AGATAAGAAGCACTGG (sugars k3 d10 k3, PS), the target mRNA inhibition (SK-MEL-28, 4 µM) is 25%. Consider “CACATCAATGTTTTAG (sugars kdddddddddkekeke, PS)”, for which the target mRNA inhibition (MM.1R, 1 µM) is -2% and 18%.

On to CTGCAGCCAAGGATAA (sugars k3 d10 k3, PS), for which the target mRNA inhibition (SK-MEL-28, 4 µM) was 48%.

On to “ACTTTTAGAGAGGAGA (sugars kkdddddddddkdkdk, PS)”, for which the target mRNA inhibition (MM.1R, 1 µM) is 34%. Regarding “GACACTTTTAGAGAGG (sugars kkkddddddddkekek, PS)”, the target mRNA inhibition (MM.1R, 1 µM) is -8%. For CTTCATCAGACTAAGT (sugars k3 d10 k3, PS), the target mRNA inhibition (SK-MEL-28, 4 µM) was 31%. For “AGTATGAGAAACGGCC (sugars e1 k2 d9 k2 e2, PS)”, the target mRNA inhibition (MM.1R, 1 µM) amounted to 12%. In the case of CATTCTAACAGATAAC (sugars k3 d10 k3, PS), the target mRNA inhibition (SK-MEL-28, 4 µM) was -2%. As to “CAGTTGTAAATGAGTC (sugars e1 k2 d9 k2 e2, PS)”, the target mRNA inhibition reads like this: (MM.1R, 0.074 µM) 12%; (MM.1R, 0.222 µM) 34%; (MM.1R, 0.666 µM) 51%; (MM.1R, 1 µM) 55%; (MM.1R, 2 µM) 70%. Take GCCCAGCTAGCGCGCA (sugars k3 d10 k3, PS): where the note is “SK-MEL-28, 4 µM”, the target mRNA inhibition worked out at 29%. For the sequence CTGAACTGTGTAACTC (sugars k3 d10 k3, PS), the target mRNA inhibition (SK-MEL-28, 4 µM) was 28%. GGCACAAGCATAAAAG (sugars k3 d10 k3, PS): the target mRNA inhibition (SK-MEL-28, 4 µM) came out at 1%. The same measure, in the same setting: the result for TTAAGAGGCGACTGCT (sugars k3 d10 k3, PS) reads 12%.

As for ATACTGTAAGGGCTGC (sugars k3 d10 k3, PS), the target mRNA inhibition (SK-MEL-28, 4 µM) was found to be 54%. For AAGGTTCCTGTCACCT (sugars k4 d8 k4, PS), for the setting “SK-MEL-28, 4 µM”, the target mRNA inhibition turned out to be 14%. With “ATTATATACTGGTTGG (sugars k2 d9 e3 k2, PS)”, the target mRNA inhibition (MM.1R, 1 µM) is 37%. As to GTTAAAGGAGTGCAGG (sugars k3 d10 k3, PS), under “SK-MEL-28, 4 µM”, the target mRNA inhibition is -14%. Turning to AATCACGAGGTTGCCG (sugars k3 d10 k3, PS), for the setting “MM.1R, 1 µM”, the target mRNA inhibition was -6%.
